Results from the supplement of paper PMC10627819.

Experiments:
[1] = tested on: S. aureus DSM 20231; assay: Bliss interaction score (quartile over a dose matrix) (fitness difference); higher = more antagonism (negative = synergy)
Summary of the method: (§1)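 The Bliss score takes observed fitness and subtracts the expected fitness, calculated as a product of single-drug fitness values. Those single-drug values were inferred from the combination data. Fitness is OD595 at entry into stationary phase divided by the plate's robust no-drug mean, capped at 1, and the score is summarised by quartiles across technical, biological and donor/recipient replicates.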

[2] = tested on: S. aureus Newman; assay: as above
Summary of the method: as §1

[3] = tested on: S. pneumoniae D39V; assay: as above
Summary of the method: as §1

[4] = tested on: B. subtilis 168; assay: as above
Summary of the method: as §1

[5] = tested on: S. aureus Newman; assay: fitness (endpoint OD595 vs no drug) (fraction); higher = more growth
Summary of the method: (§2)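 Fitness was defined as the optical density at the transition into stationary phase relative to the robust mean of no-drug control wells. Values were capped at 1. Cultures were started at OD595 0.01 in 384-well plates (30 µl, or 55 µl for S. pneumoniae) in TSB, LB Lennox or CY at 37 °C. OD595 was recorded every 30 min over 14 h, with the first reading subtracted as background.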

[6] = tested on: S. pneumoniae D39V; assay: as above
Summary of the method: as §2

[7] = tested on: B. subtilis 168; assay: as above
Summary of the method: as §2
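Wherever Bliss interaction score (quartile over a dose matrix) is given: first quartile when negative (synergy) and third quartile when positive (antagonism).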

CO/N=C(\C(=O)N[C@@H]1C(=O)N2C(C(=O)O)=C(COC(C)=O)CS[C@H]12)c1csc(N)n1 [Cefotaxime] + CC1=C(C(=O)O)N2C(=O)[C@@H](NC(=O)[C@H](N)c3ccccc3)[C@H]2SC1 [Cephalexin]
Conditions	Bliss interaction score
[1]	0.0629
[2]	0.09
[3]	-0.0656
[4]	0.101

fitness, one replicate
Conditions	partner 0.125 µg/mL	partner 0.25 µg/mL	partner 0.5 µg/mL	partner 1 µg/mL
[5], first compound 0.039 µg/mL	–	0.904	0.952	≥ 1
[5], first compound 0.312 µg/mL	–	0.402	0.38	0.371
[6], first compound 0.0018 µg/mL	≥ 1	0.959	1	–
[6], first compound 0.0035 µg/mL	0.953	0.967	0.977	–
[6], first compound 0.007 µg/mL	0.777	0.875	0.724	–
[7], first compound 0.00775 µg/mL	–	0.868	0.903	0.851
[7], first compound 0.0155 µg/mL	–	0.729	0.728	0.748
[7], first compound 0.031 µg/mL	–	0.62	0.631	0.615

Conditions	fitness
[5], first compound 0.078 µg/mL, partner 0.25 µg/mL	0.751
[5], first compound 0.078 µg/mL, partner 0.5 µg/mL	0.797
[5], first compound 0.078 µg/mL, partner 1 µg/mL	0.817
[5], first compound 0.156 µg/mL, partner 0.25 µg/mL	0.636
[5], first compound 0.156 µg/mL, partner 0.5 µg/mL	0.631
[5], first compound 0.156 µg/mL, partner 1 µg/mL	0.713
[5], first compound 0.625 µg/mL, partner 0.5 µg/mL	0.248
[5], first compound 1.25 µg/mL, partner 0.25 µg/mL	0.159
[5], first compound 1.25 µg/mL, partner 0.5 µg/mL	0.111
[5], first compound 1.25 µg/mL, partner 1 µg/mL	0.0956
[5], first compound 2.5 µg/mL, partner 0.25 µg/mL	0.0395
[5], first compound 2.5 µg/mL, partner 0.5 µg/mL	0.0255
[5], first compound 2.5 µg/mL, partner 1 µg/mL	0.0566
[6], first compound 0.0018 µg/mL, partner 1 µg/mL	0.815
[6], first compound 0.0018 µg/mL, partner 2 µg/mL	0.242
[6], first compound 0.0018 µg/mL, partner 4 µg/mL	0.0372
[6], first compound 0.0035 µg/mL, partner 1 µg/mL	0.679
[6], first compound 0.0035 µg/mL, partner 2 µg/mL	0.168
[6], first compound 0.0035 µg/mL, partner 4 µg/mL	0.0436
[6], first compound 0.007 µg/mL, partner 2 µg/mL	0.0426
[6], first compound 0.007 µg/mL, partner 4 µg/mL	0.0416
[7], first compound 0.5 µg/mL, partner 0.125 µg/mL	0.235
[7], first compound 0.5 µg/mL, partner 0.25 µg/mL	0.221
[7], first compound 0.5 µg/mL, partner 0.5 µg/mL	0.248
[7], first compound 1 µg/mL, partner 0.125 µg/mL	0.152
[7], first compound 1 µg/mL, partner 0.25 µg/mL	0.123
[7], first compound 1 µg/mL, partner 0.5 µg/mL	0.148
[7], first compound 2 µg/mL, partner 0.125 µg/mL	0.124
[7], first compound 2 µg/mL, partner 0.25 µg/mL	0.125
[7], first compound 2 µg/mL, partner 0.5 µg/mL	0.0819

CO/N=C(\C(=O)N[C@@H]1C(=O)N2C(C(=O)O)=C(COC(C)=O)CS[C@H]12)c1csc(N)n1 [Cefotaxime] + CN(C)c1cc(NC(=O)CNC(C)(C)C)c(O)c2c1C[C@H]1C[C@H]3[C@H](N(C)C)C(O)=C(C(N)=O)C(=O)[C@@]3(O)C(O)=C1C2=O [Tigecycline]
Conditions	Bliss interaction score
[1]	0.0485
[2]	-0.0426
[3]	-0.0363
[4]	0.0544

fitness, one replicate
Conditions	partner 0.039 µg/mL	partner 0.078 µg/mL	partner 0.125 µg/mL	partner 0.156 µg/mL	partner 0.25 µg/mL	partner 0.5 µg/mL
[5], first compound 0.039 µg/mL	0.709	0.781	–	0.776	–	–
[5], first compound 0.625 µg/mL	0.0125	0.0197	–	0.0212	–	–
[5], first compound 1.25 µg/mL	0.0613	0.0298	–	0.023	–	–
[5], first compound 2.5 µg/mL	0.0425	0.0445	–	0.0375	–	–
[7], first compound 0.00775 µg/mL	0.83	0.784	–	0.811	–	–
[7], first compound 0.0155 µg/mL	0.696	0.677	–	0.621	–	–
[7], first compound 0.031 µg/mL	0.476	0.528	–	0.589	–	–
[7], first compound 0.0625 µg/mL	–	–	0.623	–	0.513	0.573
[7], first compound 0.125 µg/mL	–	–	0.457	–	0.4	0.406
[7], first compound 0.25 µg/mL	–	–	0.307	–	0.237	0.252

Conditions	fitness
[5], first compound 0.078 µg/mL, partner 0.039 µg/mL	0.706
[5], first compound 0.078 µg/mL, partner 0.078 µg/mL	0.777
[5], first compound 0.078 µg/mL, partner 0.156 µg/mL	0.767
[5], first compound 0.156 µg/mL, partner 0.039 µg/mL	0.655
[5], first compound 0.156 µg/mL, partner 0.078 µg/mL	0.701
[5], first compound 0.156 µg/mL, partner 0.156 µg/mL	0.714
[5], first compound 0.312 µg/mL, partner 0.039 µg/mL	0.427
[5], first compound 0.312 µg/mL, partner 0.078 µg/mL	0.434
[5], first compound 0.312 µg/mL, partner 0.156 µg/mL	0.422
[6], first compound 0.0018 µg/mL, partner 0.325 µg/mL	0.978
[6], first compound 0.0018 µg/mL, partner 0.65 µg/mL	0.936
[6], first compound 0.0018 µg/mL, partner 1.3 µg/mL	0.993
[6], first compound 0.0018 µg/mL, partner 2.6 µg/mL	0.92
[6], first compound 0.0035 µg/mL, partner 0.325 µg/mL	0.957
[6], first compound 0.0035 µg/mL, partner 0.65 µg/mL	0.903
[6], first compound 0.0035 µg/mL, partner 1.3 µg/mL	0.954
[6], first compound 0.0035 µg/mL, partner 2.6 µg/mL	0.88
[6], first compound 0.007 µg/mL, partner 0.325 µg/mL	0.918
[6], first compound 0.007 µg/mL, partner 0.65 µg/mL	0.849
[6], first compound 0.007 µg/mL, partner 1.3 µg/mL	0.896
[6], first compound 0.007 µg/mL, partner 2.6 µg/mL	0.774
[7], first compound 0.5 µg/mL, partner 0.039 µg/mL	0.231
[7], first compound 0.5 µg/mL, partner 0.078 µg/mL	0.198
[7], first compound 0.5 µg/mL, partner 0.156 µg/mL	0.234
[7], first compound 1 µg/mL, partner 0.039 µg/mL	0.0778
[7], first compound 1 µg/mL, partner 0.078 µg/mL	0.092
[7], first compound 1 µg/mL, partner 0.156 µg/mL	0.109
[7], first compound 2 µg/mL, partner 0.039 µg/mL	0.0602
[7], first compound 2 µg/mL, partner 0.078 µg/mL	0.0925
[7], first compound 2 µg/mL, partner 0.156 µg/mL	0.101

CO/N=C(\C(=O)N[C@@H]1C(=O)N2C(C(=O)O)=C(COC(N)=O)CS[C@H]12)c1ccco1 [Cefuroxime] + CN(N=O)C(=O)N[C@@H](C=O)[C@@H](O)[C@H](O)[C@H](O)CO [Streptozotocin]
Conditions	Bliss interaction score
[1]	0.0897
[2]	-0.194
[3]	-0.0368
[4]	-0.0649

fitness, [5], one replicate
Conditions	first compound 0.04875 µg/mL	first compound 0.0975 µg/mL	first compound 0.195 µg/mL
partner 0.15 µg/mL	0.958	0.995	0.96
partner 0.3 µg/mL	0.731	0.723	0.736
partner 0.6 µg/mL	0.534	0.51	0.464

fitness, [7]
Conditions	first compound 0.04875 µg/mL	first compound 0.0975 µg/mL	first compound 0.195 µg/mL
partner 0.15 µg/mL	0.717	0.688	0.539
partner 0.3 µg/mL	–	–	0.54
partner 0.6 µg/mL	–	–	0.496
